Assay results from ChEMBL document CHEMBL1201862, “PubChem BioAssay data set” (2004).
Activity calls are given as the source filed them.

Columns and labels:
[1] = target: T1, Beta-lactamase (Pseudomonas aeruginosa, UniProt Q79MP6); test: IMP-1 metallo-beta-lactamase inhibitors, dose response, selectivity assay for VIM-2 inhibitor project, biochemical, epi-absorbance (AID 1920)
[2] = target: T1, Beta-lactamase; test: […] counterscreen for selective VIM-2 inhibitors: dose response biochemical high throughput screening assay to identify inhibitors of IMP-1 metallo-beta-lactamase.
[3] = target: Beta-lactamase (Salmonella choleraesuis (strain SC-B67), UniProt Q5J463); test: Epi-absorbance-based counterscreen for selective VIM-2 inhibitors: dose response biochemical high throughput screening assay to identify inhibitors of TEM-1 serine-beta-lactamase.
[4] = HEK293 cell cytotoxicity, dose response, cytotoxicity control, plate reader, cherry-picked samples (AID 743446); assay type: functional, cell-based
[5] = HepG2 cell cytotoxicity, dose response, cytotoxicity control, plate reader, cherry-pick, antagonist series (AID 743416); assay type: functional, cell-based
[6] = MC4R antagonists, dose response, counter-screen for LGR2 antagonist project, cell-based, plate reader, cherry pick (AID 743444); assay type: functional;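 also: transfected HEK 293 cells stimulated with alpha-MSH peptide; potency of inhibitors of the alpha-MSH evoked signal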
[7] = A549 cell cytotoxicity, dose response, cytotoxicity control, plate reader, cherry-pick, antagonist series (AID 743412); assay type: functional, cell-based
[8] = LGR2 antagonists, dose response, cell-based, HEK293, CRE-luciferase reporter, cherry pick, set 2 (AID 743343); assay type: functional;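 also: transfected cells were stimulated with diluted bursicon conditioned medium after compound addition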
[9] = target: T2, Trace amine-associated receptor 1 (Homo sapiens, UniProt Q96RJ0); test: Fluorescence-based cell-based high throughput dose response assay to identify agonists of the human trace amine associated receptor 1 (TAAR1).; assay type: functional
T2 sequence (Q96RJ0 whole entry): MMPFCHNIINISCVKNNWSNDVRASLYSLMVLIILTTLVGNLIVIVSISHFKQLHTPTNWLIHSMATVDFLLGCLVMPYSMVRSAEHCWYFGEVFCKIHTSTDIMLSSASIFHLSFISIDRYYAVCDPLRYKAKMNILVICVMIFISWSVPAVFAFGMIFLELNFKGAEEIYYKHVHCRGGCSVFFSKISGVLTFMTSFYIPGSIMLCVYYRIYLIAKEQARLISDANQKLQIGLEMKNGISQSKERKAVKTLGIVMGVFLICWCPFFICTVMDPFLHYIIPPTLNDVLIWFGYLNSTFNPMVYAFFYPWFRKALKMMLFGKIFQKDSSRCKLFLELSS

[10] = cells; assay type: functional, cell-based
[11] = cells; assay type: functional, cell-based; remark: listed apart in the source
[12] = target: T2, Trace amine-associated receptor 1; test: Counterscreen for agonists of the human trace amine associated receptor 1 (hTAAR1): Fluorescence-based cell-based high throughput dose response assay to identify hTAAR1 agonist that also desensitize TAAR1 receptor response.; assay type: functional
[13] = target: SWI/SNF-related matrix-associated actin-dependent regulator of chromatin subfamily A member 2 (Homo sapiens, UniProt P51531); test: Luminescence-based cell-based high throughput dose response assay to identify activators of the function of SWI/SNF related, matrix associated, actin dependent regulator of chromatin, subfamily a, member 2 (SMARCA2, BRM).; assay type: functional
[14] = Counterscreen for activators of the function of SWI/SNF related, matrix associated, actin dependent regulator of chromatin, subfamily a, member 2 (SMARCA2, BRM): Luminescence-based cell-based high throughput dose response assay to identify non-selective compounds using the VP16 reporter assay.; assay type: functional
[15] = target: T3, Adenosylmethionine-8-amino-7-oxononanoate aminotransferase (Mycobacterium tuberculosis, UniProt P9WQ81); test: Mycobacterium tuberculosis BioA enzyme inhibitor Measured in Biochemical System Using Plate Reader - 2163-02_Inhibitor_Dose_CherryPick_Activity.; assay type: functional, Mycobacterium tuberculosis UT205
T3 sequence (P9WQ81 whole entry): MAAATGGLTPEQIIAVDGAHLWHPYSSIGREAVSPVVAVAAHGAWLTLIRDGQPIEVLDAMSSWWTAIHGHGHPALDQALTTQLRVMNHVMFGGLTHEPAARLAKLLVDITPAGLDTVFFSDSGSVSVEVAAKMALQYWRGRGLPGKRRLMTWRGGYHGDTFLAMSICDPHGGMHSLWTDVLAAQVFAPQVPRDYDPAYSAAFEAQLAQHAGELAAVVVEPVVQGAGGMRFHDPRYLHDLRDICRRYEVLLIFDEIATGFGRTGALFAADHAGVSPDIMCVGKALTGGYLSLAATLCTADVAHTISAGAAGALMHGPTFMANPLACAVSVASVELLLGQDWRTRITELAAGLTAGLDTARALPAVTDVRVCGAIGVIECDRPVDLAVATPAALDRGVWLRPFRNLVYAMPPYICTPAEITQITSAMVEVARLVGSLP

[16] = HEK293T cytotoxicity, dose response, cytotoxicity control for miR-122 modulator project, cell-based, activator set, cherry-pick (AID 720690); assay type: functional;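 also: HEK293T human cells scored for general mammalian cytotoxicity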
[17] = miR-122 activators in hepatoma reporter cells, dose response, cell-based, Huh7 psiCHECK-miR122, Renilla luciferase, cherry-picked (AID 651956); assay type: functional;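 also: huh7 hepatoma cells stably carrying a psiCHECK-2 miR-122 sensor plasmid; renilla luciferase signal reporting endogenous miR-122 activity after 48 h compound exposure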
[18] = inhibitors of TNFa-stimulated NF-kB luciferase reporter, dose response, selectivity assay for EBV LMP1 NF-kB inhibitor project, HEK293 LMP1 reporter cells, dry powder, set 2 (AID 624369); assay type: functional
[19] = HEK293T cytotoxicity, dose response, cytotoxicity control for miR-122 modulator project, cell-based, inhibitor set, cherry-pick, set 2 (AID 720697); assay type: functional

T1 sequence (Q79MP6 whole entry): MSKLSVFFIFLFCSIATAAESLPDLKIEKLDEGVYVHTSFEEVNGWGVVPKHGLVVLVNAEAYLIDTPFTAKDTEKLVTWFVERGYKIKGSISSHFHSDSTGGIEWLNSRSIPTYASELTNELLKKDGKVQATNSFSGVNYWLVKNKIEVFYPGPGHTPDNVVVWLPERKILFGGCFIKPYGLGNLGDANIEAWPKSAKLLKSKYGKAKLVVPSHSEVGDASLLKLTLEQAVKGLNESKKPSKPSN
Sequence of SWI/SNF-related matrix-associated actin-dependent regulator of chromatin subfamily A member 2 (P51531 whole entry): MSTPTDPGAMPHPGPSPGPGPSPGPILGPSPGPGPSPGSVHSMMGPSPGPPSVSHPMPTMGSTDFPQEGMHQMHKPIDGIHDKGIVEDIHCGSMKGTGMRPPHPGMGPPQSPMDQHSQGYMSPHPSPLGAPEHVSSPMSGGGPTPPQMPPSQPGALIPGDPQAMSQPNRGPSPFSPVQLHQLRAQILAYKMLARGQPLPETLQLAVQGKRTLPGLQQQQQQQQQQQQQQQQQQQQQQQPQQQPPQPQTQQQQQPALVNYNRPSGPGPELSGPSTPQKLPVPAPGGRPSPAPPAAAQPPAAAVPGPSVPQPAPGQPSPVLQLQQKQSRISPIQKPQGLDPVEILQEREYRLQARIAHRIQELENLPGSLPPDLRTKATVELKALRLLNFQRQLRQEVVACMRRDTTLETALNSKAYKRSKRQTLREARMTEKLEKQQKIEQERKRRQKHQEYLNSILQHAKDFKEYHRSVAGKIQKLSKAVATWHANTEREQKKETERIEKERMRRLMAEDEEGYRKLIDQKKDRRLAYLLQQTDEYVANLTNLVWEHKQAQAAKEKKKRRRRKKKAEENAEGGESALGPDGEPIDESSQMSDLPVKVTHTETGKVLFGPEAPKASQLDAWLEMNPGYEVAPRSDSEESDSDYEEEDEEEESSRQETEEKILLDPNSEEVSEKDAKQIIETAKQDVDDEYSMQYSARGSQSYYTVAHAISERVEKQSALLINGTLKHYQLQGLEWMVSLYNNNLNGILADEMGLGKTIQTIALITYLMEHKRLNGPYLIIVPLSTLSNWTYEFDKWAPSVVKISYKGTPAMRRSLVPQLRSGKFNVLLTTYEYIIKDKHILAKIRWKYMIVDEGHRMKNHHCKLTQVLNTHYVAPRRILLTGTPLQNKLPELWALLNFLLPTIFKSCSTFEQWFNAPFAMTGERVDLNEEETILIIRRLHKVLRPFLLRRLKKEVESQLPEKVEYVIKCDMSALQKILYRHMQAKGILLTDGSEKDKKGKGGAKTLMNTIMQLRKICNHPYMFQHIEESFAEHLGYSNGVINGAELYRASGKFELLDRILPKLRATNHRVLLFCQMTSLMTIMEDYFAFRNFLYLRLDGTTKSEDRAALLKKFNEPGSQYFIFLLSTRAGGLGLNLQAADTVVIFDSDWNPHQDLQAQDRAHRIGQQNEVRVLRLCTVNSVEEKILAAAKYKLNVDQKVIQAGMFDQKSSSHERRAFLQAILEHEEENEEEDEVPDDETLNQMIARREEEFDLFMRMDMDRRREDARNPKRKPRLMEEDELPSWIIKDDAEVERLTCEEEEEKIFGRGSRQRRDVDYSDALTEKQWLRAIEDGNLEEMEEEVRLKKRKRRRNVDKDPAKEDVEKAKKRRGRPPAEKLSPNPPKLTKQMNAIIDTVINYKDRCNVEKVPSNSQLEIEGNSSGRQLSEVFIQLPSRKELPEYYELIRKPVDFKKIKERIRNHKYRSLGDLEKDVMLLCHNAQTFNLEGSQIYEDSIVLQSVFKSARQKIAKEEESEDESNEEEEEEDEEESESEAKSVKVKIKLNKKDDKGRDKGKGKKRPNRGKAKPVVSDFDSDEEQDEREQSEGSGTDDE
Sequence of Beta-lactamase (Salmonella choleraesuis (strain SC-B67), UniProt Q5J463) (Q5J463 whole entry): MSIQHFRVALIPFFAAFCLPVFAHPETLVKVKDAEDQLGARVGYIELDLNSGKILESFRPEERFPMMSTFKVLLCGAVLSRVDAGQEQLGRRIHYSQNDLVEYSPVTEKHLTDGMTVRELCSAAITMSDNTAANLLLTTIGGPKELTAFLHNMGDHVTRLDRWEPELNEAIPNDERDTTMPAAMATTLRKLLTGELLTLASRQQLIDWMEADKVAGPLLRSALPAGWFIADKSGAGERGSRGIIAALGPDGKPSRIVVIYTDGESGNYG

CCCc1cc(=O)oc2c3c(cc(OCC(=O)N4CCC[C@H]4C(=O)O)c12)OC(C)(C)CC3
IC50 [1]: > 59.6 µM (inactive) | IC50 [2]: > 59.6 µM (inactive) | IC50 [3]: > 59.6 µM (inactive)

Nc1c(C(=O)N2CCOCC2)sc2nc3c(cc12)CCCC3
AC50 [4]: > 52 µM (inactive) | AC50 [5]: > 52 µM (inactive) | AC50 [6]: 3.2 µM (active) | AC50 [7]: > 52 µM (inactive) | AC50 [8]: 2.38 µM (active)

O=C(NCCc1ccccc1)C(=O)NCC1OCCN1S(=O)(=O)c1ccccc1 (centres undefined)
EC50 [9]: 5.39 µM (active) | EC50 [10]: > 29.9 µM (inactive) | IC50 [11]: > 29.9 µM (inactive) | IC50 [12]: 11.8 µM (inactive)

Clc1ccc(-c2nc3ccc(Cl)cn3c2Cc2ccsc2)cc1
EC50 [13]: > 91.2 µM (inactive) | EC50 [14]: > 91.2 µM (inactive)

O=C(c1ccncc1)N1CC[C@@H]2[C@H](CO)Nc3ccc(Br)cc3[C@@H]21
AC50 [15]: 1.17 µM (active)

O=C(c1ccncc1)N1CC[C@@H]2[C@H]1c1cc(Br)ccc1N[C@@H]2CO
AC50 [15]: 0.894 µM (active)

CN1C(=O)c2cc(NC(=O)c3ccc(C(F)(F)F)cc3)ccc2OC[C@@H]2O[C@@H](CC(=O)NCc3ccc4c(c3)OCO4)CC[C@@H]21
AC50 [16]: 23.8 µM (active) | AC50 [17]: 13.8 µM (active)

O=C(NCCc1ccccc1Cl)[C@@H]1CCCN1C(=O)[C@@H](NC(=O)N1CCOCC1)C1CCCCC1
EC50 [9]: 5.36 µM (active) | EC50 [10]: > 29.9 µM (inactive) | IC50 [11]: > 29.9 µM (inactive) | IC50 [12]: 6.35 µM (active)

C[C@@H]1CN([C@H](C)CO)S(=O)(=O)c2ccc(/C=C/c3ccccc3)cc2O[C@H]1CN(C)C(=O)NC1CCCCC1
AbsAC35 [18]: 64.61 µM

CCNC(=O)C[C@H]1CC[C@@H]2[C@@H](COc3ccc(NC(=O)c4cccc(C(F)(F)F)c4)cc3C(=O)N2C)O1
AC50 [19]: 0.469 µM (active)
